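Each compound was tested at five concentrations against cells in 96-well plates for 48 hours. TGI: total growth inhibition.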
Key:
Assay in all cases: inhibition of tumour cell growth, NCI panel, 48 h
786-0 renal = test system: 786-0 renal
A498 renal = test system: A498 renal
A549 NSCLC = test system: A549 NSCLC
ACHN renal = test system: ACHN renal
BT-549 breast = test system: BT-549 breast
CAKI-1 renal = test system: CAKI-1 renal
CCRF-CEM leukemia = test system: CCRF-CEM leukemia
COLO 205 colon = test system: COLO 205 colon
DU-145 prostate = test system: DU-145 prostate
EKVX NSCLC = test system: EKVX NSCLC
HCC-2998 colon = test system: HCC-2998 colon
HCT-116 colon = test system: HCT-116 colon
HCT-15 colon = test system: HCT-15 colon
HL-60(TB) leukemia = test system: HL-60(TB) leukemia
HOP-62 NSCLC = test system: HOP-62 NSCLC
HOP-92 NSCLC = test system: HOP-92 NSCLC
HS 578T breast = test system: HS 578T breast
HT29 colon = test system: HT29 colon
IGROV1 ovarian = test system: IGROV1 ovarian
K-562 leukemia = test system: K-562 leukemia
KM12 colon = test system: KM12 colon
LOX IMVI melanoma = test system: LOX IMVI melanoma
M14 melanoma = test system: M14 melanoma
MALME-3M melanoma = test system: MALME-3M melanoma
MCF7 breast = test system: MCF7 breast
MDA-MB-231 breast = test system: MDA-MB-231 breast
MDA-MB-435 = test system: MDA-MB-435
MDA-N = test system: MDA-N
MOLT-4 leukemia = test system: MOLT-4 leukemia
NCI-H226 lung = test system: NCI-H226 lung
NCI-H23 lung = test system: NCI-H23 lung
NCI-H460 lung = test system: NCI-H460 lung
NCI-H522 lung = test system: NCI-H522 lung
NCI/ADR-RES ovarian = test system: NCI/ADR-RES ovarian
OVCAR-3 ovarian = test system: OVCAR-3 ovarian
OVCAR-4 ovarian = test system: OVCAR-4 ovarian
OVCAR-5 ovarian = test system: OVCAR-5 ovarian
OVCAR-8 ovarian = test system: OVCAR-8 ovarian
PC-3 prostate = test system: PC-3 prostate
RPMI-8226 leukemia = test system: RPMI-8226 leukemia
RXF 393 renal = test system: RXF 393 renal
SF-268 CNS = test system: SF-268 CNS
SF-295 CNS = test system: SF-295 CNS
SF-539 CNS = test system: SF-539 CNS
SK-MEL-2 melanoma = test system: SK-MEL-2 melanoma
SK-MEL-28 melanoma = test system: SK-MEL-28 melanoma
SK-MEL-5 melanoma = test system: SK-MEL-5 melanoma
SK-OV-3 ovarian = test system: SK-OV-3 ovarian
SN12C renal = test system: SN12C renal
SNB-19 CNS = test system: SNB-19 CNS
SNB-75 CNS = test system: SNB-75 CNS
SR leukemia = test system: SR leukemia
SW-620 colon = test system: SW-620 colon
T-47D breast = test system: T-47D breast
TK-10 renal = test system: TK-10 renal
U251 CNS = test system: U251 CNS
UACC-257 melanoma = test system: UACC-257 melanoma
UACC-62 melanoma = test system: UACC-62 melanoma
UO-31 renal = test system: UO-31 renal

SMILES: OC(C/C(=N\N=C(/CC(O)(C(F)(F)F)C(F)(F)F)c1ccccc1)c1ccccc1)(C(F)(F)F)C(F)(F)F
- TGI (786-0 renal): > 10 µM
- TGI (A498 renal): > 10 µM
- TGI (A549 NSCLC): > 10 µM
- TGI (ACHN renal): > 10 µM
- TGI (BT-549 breast): > 10 µM
- TGI (CAKI-1 renal): > 10 µM
- TGI (CCRF-CEM leukemia): > 10 µM
- TGI (COLO 205 colon): > 10 µM
- TGI (DU-145 prostate): > 10 µM
- TGI (EKVX NSCLC): > 10 µM
- TGI (HCC-2998 colon): > 10 µM
- TGI (HCT-116 colon): > 10 µM
- TGI (HCT-15 colon): > 10 µM
- TGI (HL-60(TB) leukemia): > 10 µM
- TGI (HOP-62 NSCLC): > 10 µM
- TGI (HOP-92 NSCLC): > 10 µM
- TGI (HS 578T breast): > 10 µM
- TGI (HT29 colon): > 10 µM
- TGI (IGROV1 ovarian): > 10 µM
- TGI (K-562 leukemia): > 10 µM
- TGI (KM12 colon): > 10 µM
- TGI (LOX IMVI melanoma): > 10 µM
- TGI (M14 melanoma): > 10 µM
- TGI (MALME-3M melanoma): > 10 µM
- TGI (MCF7 breast): > 10 µM
- TGI (MDA-MB-231 breast): > 10 µM
- TGI (MDA-MB-435): > 10 µM
- TGI (MDA-N): > 10 µM
- TGI (MOLT-4 leukemia): > 10 µM
- TGI (NCI-H226 lung): > 10 µM
- TGI (NCI-H23 lung): > 10 µM
- TGI (NCI-H460 lung): > 10 µM
- TGI (NCI-H522 lung): > 10 µM
- TGI (NCI/ADR-RES ovarian): > 10 µM
- TGI (OVCAR-3 ovarian): > 10 µM
- TGI (OVCAR-4 ovarian): > 10 µM
- TGI (OVCAR-5 ovarian): > 10 µM
- TGI (OVCAR-8 ovarian): > 10 µM
- TGI (PC-3 prostate): > 10 µM
- TGI (RPMI-8226 leukemia): > 10 µM
- TGI (RXF 393 renal): > 10 µM
- TGI (SF-268 CNS): > 10 µM
- TGI (SF-295 CNS): > 10 µM
- TGI (SF-539 CNS): > 10 µM
- TGI (SK-MEL-2 melanoma): > 10 µM
- TGI (SK-MEL-28 melanoma): > 10 µM
- TGI (SK-MEL-5 melanoma): > 10 µM
- TGI (SK-OV-3 ovarian): > 10 µM
- TGI (SN12C renal): > 10 µM
- TGI (SNB-19 CNS): > 10 µM
- TGI (SNB-75 CNS): > 10 µM
- TGI (SR leukemia): > 10 µM
- TGI (SW-620 colon): > 10 µM
- TGI (T-47D breast): > 10 µM
- TGI (TK-10 renal): > 10 µM
- TGI (U251 CNS): > 10 µM
- TGI (UACC-257 melanoma): > 10 µM
- TGI (UACC-62 melanoma): > 10 µM

SMILES: CN1CCN(CCCCN2c3ccccc3Sc3ccc(N=[N+]=[N-])cc32)CC1
- TGI (786-0 renal): 22.6 µM
- TGI (A498 renal): 29.9 µM
- TGI (A549 NSCLC): 29.3 µM
- TGI (ACHN renal): 22.1 µM
- TGI (BT-549 breast): 26.9 µM
- TGI (CAKI-1 renal): 22.1 µM
- TGI (CCRF-CEM leukemia): 7.75 µM
- TGI (COLO 205 colon): 3.51 µM
- TGI (DU-145 prostate): 26.6 µM
- TGI (EKVX NSCLC): 29.4 µM
- TGI (HCC-2998 colon): 18.3 µM
- TGI (HCT-116 colon): 13.7 µM
- TGI (HCT-15 colon): 23 µM
- TGI (HL-60(TB) leukemia): 3.69 µM
- TGI (HOP-62 NSCLC): 33.8 µM
- TGI (HOP-92 NSCLC): 12.3 µM
- TGI (HS 578T breast): 30.7 µM
- TGI (HT29 colon): 4.59 µM
- TGI (IGROV1 ovarian): 23.3 µM
- TGI (K-562 leukemia): 4.07 µM
- TGI (KM12 colon): 20.8 µM
- TGI (LOX IMVI melanoma): 7.59 µM
- TGI (M14 melanoma): 3.83 µM
- TGI (MALME-3M melanoma): 6.39 µM
- TGI (MCF7 breast): 9.75 µM
- TGI (MDA-MB-231 breast): 15 µM
- TGI (MDA-MB-435): 3.94 µM
- TGI (MDA-N): 6.96 µM
- TGI (MOLT-4 leukemia): 7.24 µM
- TGI (NCI-H226 lung): 31.7 µM
- TGI (NCI-H23 lung): 35.7 µM
- TGI (NCI-H460 lung): 17.4 µM
- TGI (NCI-H522 lung): 13.6 µM
- TGI (NCI/ADR-RES ovarian): 30 µM
- TGI (OVCAR-3 ovarian): 22.6 µM
- TGI (OVCAR-4 ovarian): 23.6 µM
- TGI (OVCAR-5 ovarian): 22.8 µM
- TGI (OVCAR-8 ovarian): 29.8 µM
- TGI (PC-3 prostate): 15.9 µM
- TGI (RPMI-8226 leukemia): 5.61 µM
- TGI (RXF 393 renal): 19.1 µM
- TGI (SF-268 CNS): 28.2 µM
- TGI (SF-295 CNS): 27.9 µM
- TGI (SF-539 CNS): 20.4 µM
- TGI (SK-MEL-2 melanoma): 12.9 µM
- TGI (SK-MEL-28 melanoma): 3.73 µM
- TGI (SK-MEL-5 melanoma): 4.62 µM
- TGI (SN12C renal): 26.1 µM
- TGI (SNB-19 CNS): 33.6 µM
- TGI (SNB-75 CNS): 16.2 µM
- TGI (SR leukemia): 7.07 µM
- TGI (SW-620 colon): 6.85 µM
- TGI (T-47D breast): 36.2 µM
- TGI (TK-10 renal): 27.9 µM
- TGI (U251 CNS): 16.9 µM
- TGI (UACC-257 melanoma): 4.22 µM
- TGI (UACC-62 melanoma): 4.1 µM
- TGI (UO-31 renal): 21.8 µM

Source: PubChem BioAssay (NCI)
